Assays:
[1] = target: T1, DNA polymerase catalytic subunit (Human cytomegalovirus (strain AD169) (HHV-5) (Human herpesvirus 5), UniProt P08546); assay: Inhibition of human cytomegalovirus DNA polymerase (95 uL) activity in a solution containing […] HEPES (pH 7.5), incubation for 12 minutes at 26 degrees C; parameters: species or system Human betaherpesvirus 5
T1 sequence (P08546 whole entry): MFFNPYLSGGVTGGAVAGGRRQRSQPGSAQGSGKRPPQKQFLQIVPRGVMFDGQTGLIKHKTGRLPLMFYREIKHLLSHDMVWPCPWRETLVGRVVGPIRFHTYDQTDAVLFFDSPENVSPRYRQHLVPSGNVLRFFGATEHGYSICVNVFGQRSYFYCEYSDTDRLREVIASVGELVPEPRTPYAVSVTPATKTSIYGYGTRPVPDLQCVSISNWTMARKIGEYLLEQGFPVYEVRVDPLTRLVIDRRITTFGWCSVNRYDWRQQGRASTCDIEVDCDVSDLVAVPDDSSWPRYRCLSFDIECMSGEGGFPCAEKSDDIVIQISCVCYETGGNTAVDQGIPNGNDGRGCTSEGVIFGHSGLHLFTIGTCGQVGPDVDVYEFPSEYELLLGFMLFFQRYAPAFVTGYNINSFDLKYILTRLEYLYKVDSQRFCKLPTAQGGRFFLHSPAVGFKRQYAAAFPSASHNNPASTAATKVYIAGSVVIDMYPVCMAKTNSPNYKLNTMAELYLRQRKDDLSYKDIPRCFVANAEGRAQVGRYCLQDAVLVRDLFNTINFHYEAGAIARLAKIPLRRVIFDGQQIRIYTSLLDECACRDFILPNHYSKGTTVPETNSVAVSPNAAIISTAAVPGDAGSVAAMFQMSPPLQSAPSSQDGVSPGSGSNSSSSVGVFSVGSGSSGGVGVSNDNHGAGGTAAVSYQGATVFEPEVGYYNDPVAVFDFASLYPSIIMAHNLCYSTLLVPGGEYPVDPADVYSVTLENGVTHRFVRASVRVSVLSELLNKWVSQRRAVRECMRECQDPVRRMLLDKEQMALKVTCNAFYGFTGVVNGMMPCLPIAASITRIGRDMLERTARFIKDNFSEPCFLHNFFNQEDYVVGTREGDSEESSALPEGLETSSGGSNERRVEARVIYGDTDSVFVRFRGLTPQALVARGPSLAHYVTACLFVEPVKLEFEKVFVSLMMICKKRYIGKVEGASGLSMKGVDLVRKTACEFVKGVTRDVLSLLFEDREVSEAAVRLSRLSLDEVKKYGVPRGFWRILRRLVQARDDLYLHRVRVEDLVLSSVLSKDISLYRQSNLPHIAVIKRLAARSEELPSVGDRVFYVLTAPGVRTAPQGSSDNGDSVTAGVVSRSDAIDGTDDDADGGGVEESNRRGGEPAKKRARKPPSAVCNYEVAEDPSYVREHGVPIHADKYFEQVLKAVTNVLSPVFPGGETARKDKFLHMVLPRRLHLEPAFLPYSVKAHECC

HFF = assay: Antiviral activity against human cytomegalovirus (Davis strain) grown on human foreskin fibroblast cells determined by reduction in plaque formation upon incubation at 37 degrees C with the compound dissolved in DMSO; format: functional, cell-based
[2] = target: T2, DNA polymerase delta catalytic subunit (Homo sapiens, UniProt P28340); assay: Inhibition of human delta DNA polymerase (95 uL) activity in a solution containg […] HEPES (pH 7.5) upon incubation for 12 minutes at 26 degrees C with the compound dissolved in DMSO
T2 sequence (P28340 whole entry): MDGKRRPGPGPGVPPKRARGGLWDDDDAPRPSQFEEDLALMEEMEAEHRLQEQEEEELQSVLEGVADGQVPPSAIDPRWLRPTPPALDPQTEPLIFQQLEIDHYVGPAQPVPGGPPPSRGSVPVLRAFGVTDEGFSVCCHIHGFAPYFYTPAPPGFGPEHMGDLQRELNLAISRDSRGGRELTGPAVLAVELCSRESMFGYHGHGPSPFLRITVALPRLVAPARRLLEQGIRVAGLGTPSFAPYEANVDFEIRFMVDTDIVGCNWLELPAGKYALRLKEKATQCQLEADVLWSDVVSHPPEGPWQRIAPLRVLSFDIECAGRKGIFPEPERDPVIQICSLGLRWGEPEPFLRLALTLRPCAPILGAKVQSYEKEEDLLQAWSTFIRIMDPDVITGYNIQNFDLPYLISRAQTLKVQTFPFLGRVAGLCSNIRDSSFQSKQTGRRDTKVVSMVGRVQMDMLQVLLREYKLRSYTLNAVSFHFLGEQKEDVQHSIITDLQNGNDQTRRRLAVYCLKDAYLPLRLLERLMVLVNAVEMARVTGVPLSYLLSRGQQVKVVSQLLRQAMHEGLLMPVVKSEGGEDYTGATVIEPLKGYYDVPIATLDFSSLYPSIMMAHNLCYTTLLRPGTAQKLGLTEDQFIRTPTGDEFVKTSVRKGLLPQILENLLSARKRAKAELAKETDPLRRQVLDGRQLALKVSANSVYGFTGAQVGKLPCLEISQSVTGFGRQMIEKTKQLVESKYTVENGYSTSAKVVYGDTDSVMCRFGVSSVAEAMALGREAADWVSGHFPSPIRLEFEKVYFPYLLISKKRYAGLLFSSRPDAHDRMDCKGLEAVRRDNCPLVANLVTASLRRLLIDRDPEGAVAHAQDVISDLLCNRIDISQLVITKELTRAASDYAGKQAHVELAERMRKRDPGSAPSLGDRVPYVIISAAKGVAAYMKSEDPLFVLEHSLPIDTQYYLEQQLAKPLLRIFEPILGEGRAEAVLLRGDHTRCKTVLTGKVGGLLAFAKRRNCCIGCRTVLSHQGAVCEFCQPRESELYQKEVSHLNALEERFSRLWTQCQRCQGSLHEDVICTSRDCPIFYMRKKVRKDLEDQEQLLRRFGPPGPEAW

[3] = target: T3, DNA polymerase alpha catalytic subunit (Homo sapiens, UniProt P09884); assay: Inhibition of human alpha DNA polymerase (95 uL) activity in a solution containg […] HEPES (pH 7.5) upon incubation for 12 minutes at 26 degrees C with the compound dissolved in DMSO
T3 sequence (P09884 whole entry): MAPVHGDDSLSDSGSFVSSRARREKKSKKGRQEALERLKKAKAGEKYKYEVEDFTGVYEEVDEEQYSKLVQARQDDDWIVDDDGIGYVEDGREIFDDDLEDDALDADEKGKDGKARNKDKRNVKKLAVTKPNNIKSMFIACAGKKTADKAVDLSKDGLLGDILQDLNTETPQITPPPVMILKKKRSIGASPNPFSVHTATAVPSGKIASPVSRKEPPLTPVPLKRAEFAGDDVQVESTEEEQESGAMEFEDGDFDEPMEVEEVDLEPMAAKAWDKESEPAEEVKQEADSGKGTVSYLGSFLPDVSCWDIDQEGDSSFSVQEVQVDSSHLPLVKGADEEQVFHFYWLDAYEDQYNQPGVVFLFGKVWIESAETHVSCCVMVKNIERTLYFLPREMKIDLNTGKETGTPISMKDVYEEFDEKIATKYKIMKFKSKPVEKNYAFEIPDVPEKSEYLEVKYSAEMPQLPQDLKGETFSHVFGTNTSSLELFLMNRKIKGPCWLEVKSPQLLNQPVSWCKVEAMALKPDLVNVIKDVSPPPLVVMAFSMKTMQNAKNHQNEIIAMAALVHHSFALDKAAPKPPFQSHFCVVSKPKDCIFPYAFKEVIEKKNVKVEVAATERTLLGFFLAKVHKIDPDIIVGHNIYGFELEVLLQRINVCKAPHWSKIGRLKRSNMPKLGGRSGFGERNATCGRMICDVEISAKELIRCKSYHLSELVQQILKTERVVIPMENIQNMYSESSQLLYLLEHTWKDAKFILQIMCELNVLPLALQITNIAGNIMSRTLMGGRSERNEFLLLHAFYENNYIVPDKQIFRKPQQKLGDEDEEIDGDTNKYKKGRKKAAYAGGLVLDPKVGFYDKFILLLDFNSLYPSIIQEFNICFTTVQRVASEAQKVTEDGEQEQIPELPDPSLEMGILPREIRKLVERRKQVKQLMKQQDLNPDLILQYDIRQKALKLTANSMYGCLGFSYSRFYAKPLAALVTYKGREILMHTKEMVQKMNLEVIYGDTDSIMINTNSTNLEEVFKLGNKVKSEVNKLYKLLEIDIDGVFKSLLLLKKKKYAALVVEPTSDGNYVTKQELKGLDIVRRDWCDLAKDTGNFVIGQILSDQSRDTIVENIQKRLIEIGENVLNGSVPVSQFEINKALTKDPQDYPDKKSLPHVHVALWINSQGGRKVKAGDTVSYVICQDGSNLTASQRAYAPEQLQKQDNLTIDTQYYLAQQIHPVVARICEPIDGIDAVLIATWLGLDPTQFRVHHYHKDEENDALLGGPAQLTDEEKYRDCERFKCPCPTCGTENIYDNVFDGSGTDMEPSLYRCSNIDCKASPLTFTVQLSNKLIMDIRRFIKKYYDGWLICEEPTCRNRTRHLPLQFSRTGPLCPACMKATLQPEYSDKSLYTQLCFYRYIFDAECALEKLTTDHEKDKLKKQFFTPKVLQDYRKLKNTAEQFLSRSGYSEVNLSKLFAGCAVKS

Row | IC50 [1] | SMILES | IC50 (HFF) | also measured
1 | 4000 nM | Cn1cc(C(=O)NCc2ccc(Cl)cc2)c(=O)c2cc(CCO)sc21 |  | 
2 | 9500 nM | Cn1cc(C(=O)NCc2ccc(Cl)cc2)c(=O)c2cc(C#CCCO)sc21 |  | 
3 | 22000 nM | Cn1cc(C(=O)NCc2ccc(Cl)cc2)c(=O)c2cc(C#CCCCO)sc21 |  | 
4 | 1100 nM | O=C(NCc1ccc(Cl)cc1)c1cn(CCO)c2sc(C#CCO)cc2c1=O | 2300 nM | 
5 | 430 nM | Cn1cc(C(=O)NCc2ccc(Cl)cc2)c(=O)c2cc(CCCCO)sc21 |  | 
6 | 9700 nM | Cn1cc(C(=O)NCc2ccc(Cl)cc2)c(=O)c2cc(CCCCCO)sc21 |  | 

Continued, compound first:

Row | SMILES | IC50 [1] | IC50 (HFF) | also measured
7 | O=C(NCc1ccc(Cl)cc1)c1cnc2sc(CCCO)cc2c1O |  | > 20000 nM | 
8 | O=C(NCc1ccc(Cl)cc1)c1cn(CCO)c2sc(CCCO)cc2c1=O | 750 nM | 1800 nM | 
9 | CCN(CC)CCn1cc(C(=O)NCc2ccc(Cl)cc2)c(=O)c2cc(CCCO)sc21 |  | 900 nM | 
10 | CCn1cc(C(=O)NCc2ccc(Cl)cc2)c(=O)c2cc(C#CCO)sc21 |  | 1700 nM | 
11 | CCn1cc(C(=O)NCc2ccc(Cl)cc2)c(=O)c2cc(CCCO)sc21 |  | 2300 nM | 
12 | Cn1cc(C(=O)NCc2ccc(Cl)cc2)c(=O)c2cc(C#CCO)sc21 |  | 1400 nM | 
13 | O=C(NCc1ccc(Cl)cc1)c1cnc2sc(C#CCO)cc2c1O | 2700 nM | > 20000 nM | 
14 | CC(C)n1cc(C(=O)NCc2ccc(Cl)cc2)c(=O)c2cc(CCCO)sc21 |  | 1300 nM | 
15 | CC(C)n1cc(C(=O)NCc2ccc(Cl)cc2)c(=O)c2cc(C#CCO)sc21 |  | 2700 nM | 
16 | CCN(CC)CCn1cc(C(=O)NCc2ccc(Cl)cc2)c(=O)c2cc(C#CCO)sc21 | 1800 nM | 3800 nM | 
17 | C[C@@]1(CO)[C@H](O)CC[C@@]2(C)[C@H]1CC[C@H]1C[C@@H]3C[C@@]12CC[C@]3(O)CO [APHIDICOLIN] |  |  | IC50 [2]: > 40 µM
18 | O=C(O)P(=O)(O)O [FOSCARNET] |  |  | IC50 [3]: > 20 µM; IC50 [2]: > 20 µM
19 | Cc1cn([C@H]2C[C@H](N=[N+]=[N-])[C@@H](CO[P@](=O)(O)O[P@](=O)(O)OP(=O)(O)O)O2)c(=O)[nH]c1=O [ZIDOVUDINE TRIPHOSPHATE] |  |  | IC50 [3]: 13.4 µM
